Experimental data published in article PMC12800093 (Nature Communications, 2025).
Where a SMILES comes first, the peptide text is derived from it. Where no end group is shown, it is not given here. [ ]: non-standard residue; d: D form.

Tests used:
[1] = tested on: Mtb-secreted proteases (mc^2 6230 supernatant); settings: proteolytic Mtb (mc^2 6230) supernatant, two weeks (0, 1, 7, 14 d), HPLC; n = 3 technical replicates
[2] = tested on: hypoxia-induced NRP Mtb H37Ra; assay type: cell-based, M. tuberculosis
[3] = tested on: nutrient-starved NRP Mtb H37Rv; assay: Kill curves with nutrient-starved non-replicating Mtb; assay type: cell-based, M. tuberculosis
[4] = tested on: proliferating Mtb (H37Rv) cultures
[5] = Human serum proteolytic stability; assay type: in vitro ADME; settings: observed during serum proteolysis experiments, 25% v/v human serum

Row | Compound | Stability in the presence of Mtb-secreted proteases [1] | activity under hypoxic conditions [2] | activity under nutrient starvation conditions [3] | incubation time at which regrowth of treated Mtb cultures was permitted [4] | reduction in the first week of exposure [4] | binding to human serum proteins [5]
1 | KRWHWWRRHWVVW-NH2 [MAD1] | completely proteolyzed after 14 days |  |  |  |  | 
2 | NNC(=O)c1ccncc1 [INH, isoniazid, reference compound] |  | inactive | inactive | 3 days | ~ 2 log | 
3 | CC(C)[C@@H](NC(=O)[C@H](N)Cc1c[nH]c2ccccc12)C(=O)N[C@@H](C(=O)N[C@H](Cc1c[nH]c2ccccc12)C(=O)N[C@H](Cc1c[nH]cn1)C(=O)N[C@H](CCCNC(=N)N)C(=O)N[C@H](CCCNC(=N)N)C(=O)N[C@H](Cc1c[nH]c2ccccc12)C(=O)N[C@H](Cc1c[nH]c2ccccc12)C(=O)N[C@H](Cc1c[nH]cn1)C(=O)N[C@H](Cc1c[nH]c2ccccc12)C(=O)N[C@H](CCCNC(=N)N)C(=O)N[C@H](CCCCN)C(N)=O)C(C)C [MAD1-RI] (H-[dW][dV][dV][dW][dH][dR][dR][dW][dW][dH][dW][dR][dK]-NH2) | generally remained stable up to two weeks |  |  |  |  | significant binding
